Results on 15 compounds are retold here after ChEMBL document CHEMBL1777812, “New 1,4-di-N-oxide-quinoxaline-2-ylmethylene isonicotinic acid hydrazide derivatives as anti-Mycobacterium tuberculosis agents” (Bioorg Med Chem Lett, 2011).

The subject of data set [1] is Mycobacterium tuberculosis. Briefly: Antimycobacterial activity against Mycobacterium tuberculosis H37Rv ATCC 27294 by microplate Alamar blue assay. Format: functional, organism-based.
Data set [2] is described as follows: Selectivity index, Ratio of CC50 for african green monkey Vero cells to IC90 for Mycobacterium tuberculosis H37Rv ATCC 27294. It counts as toxicity, cell-based.
Data set [3] is described as follows: Cytotoxicity against african green monkey Vero cells after 72 hrs by Cell titer Glo luminescent cell viability assay. Particulars: chlorocebus sabaeus. It counts as cell-based.

As to `COc1ccc2c(c1)[n+]([O-])c(C(=O)NCc1ccccc1)c(C)[n+]2[O-]`, in data set [1], the midpoint of inhibition, the IC50, lay at 18.9 µM and the IC90 is 36.4 µM.

As for `Cc1c(C(=O)NCc2ccccc2)[n+]([O-])c2cc(Cl)ccc2[n+]1[O-]`, the selectivity ratio in data set [2] is > 231. In data set [1], this compound registered a half-inhibitory concentration (IC50) of 1.1 µM and an IC90 of 1.25 µM. Also, the CC50 at 72 h in data set [3] is > 291 µM.

As for `Cc1ccc2c(c1)[n+]([O-])c(C(=O)NCc1ccccc1)c(C)[n+]2[O-]`, the selectivity ratio in data set [2] is > 23.8. In data set [1], this compound came in with an IC50 of 8.35 µM and an IC90 of 13 µM. Moreover, the CC50 at 72 h in data set [3] is > 309 µM.

Consider `Cc1c(C(=O)NCc2ccccc2)[n+]([O-])c2cc(C(F)(F)F)ccc2[n+]1[O-]`, for which the selectivity ratio in data set [2] is > 246. Also, in data set [1], the IC50 is < 0.81 µM and the IC90 was determined as 1.07 µM. Moreover, the CC50 at 72 h in data set [3] is > 265 µM.

Consider `Cc1c(C(=O)NCc2ccccc2)[n+]([O-])c2cc(F)ccc2[n+]1[O-]`, for which the selectivity ratio in data set [2] was > 65.7. In data set [1], this compound displayed an IC50 of 2.83 µM and an IC90 of 4.65 µM. Further, the CC50 at 72 h in data set [3] is > 306 µM.

As to `Cc1c(C(=O)NCc2ccccc2)[n+]([O-])c2ccccc2[n+]1[O-]`, the selectivity ratio in data set [2] is > 38.4. In data set [1], this compound registered an IC50 of 4.91 µM and an IC90 of 8.42 µM. Moreover, the CC50 at 72 h in data set [3] was > 323 µM.

In the case of `Cc1cc2c(cc1C)[n+]([O-])c(C(=O)NCc1ccccc1)c(C)[n+]2[O-]`, in data set [1], the IC50 was determined as 90.8 µM and the IC90 came out at 296 µM.

For the compound `Cc1c(/C=N/NC(=O)c2ccncc2)[n+]([O-])c2ccccc2[n+]1[O-]`, the selectivity ratio in data set [2] was > 93. In data set [1], this compound showed an IC50 of 1.17 µM and an IC90 of 1.32 µM. Moreover, the CC50 at 72 h in data set [3] is > 124 µM.

For the compound `Cc1c(/C=N/NC(=O)c2ccncc2)[n+]([O-])c2cc(Cl)ccc2[n+]1[O-]`, the selectivity ratio in data set [2] worked out at 48.1. In data set [1], the IC50 stood at 1.04 µM and the IC90 was 1.16 µM. Besides, in data set [3], it took 55.8 µM to reach half-maximal cytotoxicity (CC50 at 72 h).

Turning to `COc1ccc2c(c1)[n+]([O-])c(/C=N/NC(=O)c1ccncc1)c(C)[n+]2[O-]`, in data set [1], the IC50 is < 0.59 µM and the 90% effect concentration (IC90) is 50.6 µM.

As for `Cc1ccc2c(c1)[n+]([O-])c(/C=N/NC(=O)c1ccncc1)c(C)[n+]2[O-]`, in data set [2], the selectivity ratio was found to be 2.86. In data set [1], this compound came in with an IC50 of 1.33 µM and an IC90 of 18.2 µM. Besides, the 50% cytotoxic concentration (CC50) at 72 h in data set [3] is 52.1 µM.

As for `Cc1cc2c(cc1C)[n+]([O-])c(/C=N/NC(=O)c1ccncc1)c(C)[n+]2[O-]`, the selectivity ratio in data set [2] was > 43.5. For the same compound, in data set [1], it took 1.22 µM to reach half-maximal inhibition (IC50) and the IC90 stood at 2.57 µM. The CC50 at 72 h in data set [3] is > 124 µM.

`Cc1c(/C=N/NC(=O)c2ccncc2)[n+]([O-])c2cc(F)ccc2[n+]1[O-]`: the selectivity ratio in data set [2] is 3.31. For the same compound, in data set [1], the IC50 was < 0.58 µM and the 90% effect level (IC90) was put at 23.1 µM. The compound also yielded a CC50 at 72 h in data set [3] of 76.5 µM.

For `Cc1c(/C=N/NC(=O)c2ccncc2)[n+]([O-])c2cc(C(F)(F)F)ccc2[n+]1[O-]`, the selectivity ratio in data set [2] turned out to be 20. Moreover, in data set [1], it took 1.5 µM to reach half-maximal inhibition (IC50) and the IC90 amounted to 3.5 µM. In addition, the CC50 at 72 h in data set [3] was determined as 70 µM.

Turning to `NNC(=O)c1ccncc1` [ISONIAZID], in data set [2], the selectivity ratio was > 20000. The compound also gave an IC90 in data set [1] of 0.21 µM. The CC50 at 72 h in data set [3] was > 500 µM.
